“Also recorded” adds a separate entry of the source.
Assays:
[1] = Maximum tolerated dose, oral gavage 10 days; type: in vivo
Method: Measuring the maximum tolerated dose of Sigma receptor agonists. Male Sprague-Dawley rats (2-3 per dose) were treated by oral gavage with 6, 18, 54, 108, 135 or 150 mg/kg as estimated from in vitro functional assays and estimates of human intake when used as an antitussive. Rats received a single daily dose for 10 days. Weight, water intake, and food intake were measured daily, and rats were assessed for somnolence, activity, sensitivity to touch, and taste aversion. At the conclusion of the study, rats were humanely euthanized and brain tissue was collected and flash frozen.

[2] = tested on: rat model of focal cerebral ischemia (tMCAO); experiment: Infarct and inflammation after tMCAO (TTC, Nissl, GFAP, Iba1); type: in vivo; conditions: for infarct size by TTC staining: 24 hours after a single dose administered 48 hours after tMCAO
Method: Assessment of infarct and inflammation. For immunohistochemical assessments 6 random animals were chosen from each group by a treatment-blinded observer to reduce the chance of bias. Nissl staining was performed using thionin. Rats were deeply anesthetized with isoflurane and transcardially perfused with saline and 4% formaldehyde. Brains were removed and post fixed for 48 hours. Coronal sections were made at […] through the region of the middle cerebral artery, affixed to gelatin-coated glass slides and stained. Four sections representing Bregma levels ˜0.7, 0.2, −0.8, and −2.12 were assessed for each animal. Sections were scanned with a 4× objective using a Keyence BZ-X800 microscope and analyzed using Image J. Infarct assessment was performed by a treatment blinded observer two separate times and the average infarct was assessed by determining the extent of histologically healthy tissue using the method of Swanson (Swanson et al., 1990).
The inflammatory response to stroke was observed using immunohistochemistry for glial fibrillary acidic protein (GFAP, Neomarkers RB-087, 1:5000) to assess astrogliosis and ionized calcium binding adapter molecule 1 (Iba1 Fujifilm Wako #019-19741, 1:5000), followed by a biotinylated secondary antibody (Jackson Immuno Research #711-065-152, 1:400). […] Area of staining the striatum, cortex, and dorsal hippocampus was assessed by a treatment-blinded observer using wide-field images captured with a 4× objective using a Keyence BZ-X800. The percent area above threshold was determined with Image J. Images were processed by a treatment-blinded observer using ImageJ by converting images to 8 bits, manually outlining the areas of interest using the corpus callosum to define the boundaries of the striatum and cortex, subtracting background and subjecting the images to auto thresholding. When more than one staining run was required to process tissue, the mean gray values of a standard ROI in the contralateral cortex were used to normalize between the runs.
Rats were sacrificed under isoflurane anesthesia 2, 6, or 24 hours after dosing, and brains were removed to assess protein expression in the ischemic and contralateral cortex by immunoblotting. Brains were rapidly removed, chilled for 2 min in ice-cold saline, and sliced into 2 mm coronal slices with a brain matrix for rapid 2,3,5 triphenyltetrazolium chloride (TTC) staining. Sections were immersed in 1% TTC for 1 minute at room temperature to reveal the extent of the infarct. Cortical penumbra tissue was collected, snap frozen, and stored at −80° C. for subsequent western blotting. Protein was extracted from tissue using T-PER™ reagent with HALT protease inhibitor (Thermo-Pierce), and concentrations were determined with the PIERCE® BCA assay (Thermo-Pierce). Protein was separated on 4-20% SDS-PAGE gels (BioRad) and transferred to nitrocellulose. Blots were probed with primary antibodies for BDNF (Abcam ab226842; 1:1000) and goat anti-rabbit-HRP secondary (Thermo 32260; 1:10,000). Bands were visualized by ECL with PIERCE® SUPERSIGNAL® West Dura Femto (Thermo-Pierce) reagent using a UVP EpiChemi3. Density was assessed with Image J and normalized to β-actin (Thermo MA1-91399; 1:1000).

[3] = treatment starting 48 hours after tMCAO, 14-15 days after tMCAO, vs vehicle

CCN(CC)CCOCCOC(=O)C(CC)(CC)c1ccccc1 [Oxeladin]
mortality or overt toxicity ([1]; 6-150 mg/kg daily oral gavage, 10 days, male rats): no mortality or overt toxicity observed
well-tolerated dose ([1]; rat, in vivo, po): ≥ 150 mg/kg
infarct extent / loss of healthy brain tissue by Nissl staining ([2]; 14-15 days after tMCAO, whole hemisphere, cortex and striatum, vs Vehicle, P<0.05): significantly reduced infarct extent
infarct size by TTC staining [2]: No difference in infarct size
infarct size by TTC staining ([2]; listed as oxeladin): No significant difference in infarct size
astrogliosis (GFAP staining) [2, 3]: no differences between vehicle and oxeladin treated groups; also recorded: did not alter astrogliosis
microgliosis (Iba1 staining) [2, 3]: no differences observed
